Test results as given in patent publication US4225607A, “Pharmaceutical composition containing a xanthine derivative” (Wulfing; Johann A., priority 1979, dated 1980).
Values joined by “and” are separate entries in the source; they are usually repeats but may differ in a detail not shown here. Equal values may be shown once.

What was measured:
[1] = Blood pressure (BP), initial decrease phase and second increase phase; format: in vivo, cat; conditions: Table 3, 125 μg/kg i.v.
LD50 in mice per oral = conditions: mouse, in vivo
[2] = Solubility in water / aqueous media; format: physicochemical
[3] = tested on: ischaemic skeletal muscle; assay: Contractility of ischaemic skeletal (calf) muscle, direct stimulation, femoral artery graded occlusion; format: in vivo; conditions: cat; for dose range of activity: contractility and pO2 of ischaemic skeletal muscle; for changes in contractility and pO2 in comparison with Compound A (in words): 5-32 mg/kg vs Compound A at 125 μg/kg
Procedure: Cats of either sex were anaesthetized with urethane/chloralose (120/60 mg/kg i.p.). […] The intraduodenal (i.d.) application of compound was conducted by means of a plastic catheter, which was inserted into the duodenum.
Cats of either sex were anaesthetized as for pO2 measurement. After dissection of the skin of the calf muscles, the sciatic nerve was cut about 3 cm proximal to the knee. The tendon of the calf muscles was cut and connected with an isometric force transducer (SWEMA, SG 3). In order to maintain constant differences and a resting tension of 100 p, the hind limb was fixed at the tibia by means of a clamp. Direct stimulation of the muscles consisted of square wave pulses of 4 msec duration at a frequency of 2 Hz and at a voltage of 50 V. In order to keep the muscles wet and at a normal temperature, the muscles were continuously superfused by means of a NaCl-solution (0.9%, 38° C.). Femoral blood flow was restricted by a graded occlusion of the artery leading to a reduction of contractility by ca. 30%. After having reached a constant level of the contraction force, the vehicle (NaCl and Methocel, respectively) was injected, followed by the test substance.

skeletal muscle = assay: Oxygen tension (pO2) in skeletal muscle (m. gastrocnemius), femoral artery ligation, Pt-needle electrodes; format: in vivo, cat; conditions: for effect of Compound A, Δ pO2: 125 μg/kg i.v.
Procedure: Cats of either sex were anaesthetized with urethane/chloralose (120/60 mg/kg i.p.). In the course of the experiments, pentobarbital was injected intravenously (V. antebrachii ceph.) via a plastic tube. The intraduodenal (i.d.) application of compound was conducted by means of a plastic catheter, which was inserted into the duodenum.
pO2 was measured polarographically using Pt-needle electrodes (modified according to Baumgartl and Lubbers, 1973). The reference electrode, an Ag/AgCl system was sputtered on the glass mantle of the cathode, or it was a separate electrode. The cathode was coated with a polystyrol and a collodium membrane. A constant voltage supply provided a polarizing voltage between 600 and 800 mV. The reducing current was measured by a nano-ampere amplifying meter. The cathode was inserted in the tissue by means of a motor-driven micromanipulator.
A pO2 -electrode was inserted in the muscle tissue (m. gastrocnemius) of both hindlegs of an anaesthetized cat. After recording the pO2 of the normal perfused muscle, the blood flow to one measuring site was restricted by ligating the femoral artery. The pO2 dropped steeply and the tissue became ischaemic. After a few minutes, the pO2 increased and then decreased again. The values were constant after 30 to 60 min. After having reached a constant level of pO2, the vehicle was given, followed by the test substance.
The mean value and the standard deviation were calculated, in order to check the significance of the effect.

[4] = in vivo; cited from earlier work

| SMILES | t, time interval to reach initial values, second phase BP increase [1] [min] | LD50 (LD50 in mice per oral) [mg/kg] | solubility in aqueous media (in words) ([2]; aqueous media) | contractility of ischaemic skeletal muscle (in words) [3] | dose range of activity [3] [mg/kg] | effect of Compound A, Δ pO2 (skeletal muscle; Table 2, control hind limb, individual cats) | effect of Compound A, Δ pO2 (skeletal muscle; Table 2, hind limb with art. ligation, individual cats) | pO2 of ischaemic skeletal muscle (in words) (skeletal muscle; cat) | changes in contractility and pO2 in comparison with Compound A (in words) [3] | Mean effect of Compound B compared to Compound A (skeletal muscle; Table 2, B at 5 mg/kg vs A at 125 μg/kg, mean) [%] | effect of Compound B, Δ pO2 (skeletal muscle; Table 2, control hind limb, 5 mg/kg i.v., individual cats, 5 mg/kg) [Torr] | oral toxicity (in words) [4] | water solubility (in words) ([2]; water, reason for NT i.v.) | contractility (% initial value) ([3]; Table 1, ischaemic muscle, i.d., 12.5 mg/kg) | pO2 (increase) (skeletal muscle; Table 1, ischaemic muscle, cat, i.d., 32 mg/kg) [mmHg] |
| --- | --- | --- | --- | --- | --- | --- | --- | --- | --- | --- | --- | --- | --- | --- | --- |
| CCCCn1c(=O)c2c(ncn2CC(C)=O)n(CCCC)c1=O [Compound A, 1,3-di-n-butyl-7-(2-oxopropyl)xanthine] | 32 | > 1000 | only sparingly soluble in aqueous media | distinct increase | 0.05 to 0.125 | 3.8 Torr and 3.5 Torr and 3.4 Torr | 6.2 Torr and 7.3 Torr and 5.2 Torr and 5.6 Torr | distinct increase |  |  |  |  |  |  |  |
| CC(=O)CCCCn1c(=O)c2c(ncn2C)n(C)c1=O [Compound B, pentoxyphylline] |  |  |  |  | 5 to 32 |  |  |  | less pronounced in comparison with Compound A | 21.3 | 0.3 | low oral toxicity |  |  |  |
| CCCCn1c(=O)c2c(ncn2CC(=O)CC)n(CCCC)c1=O [Compound C, 1,3-di-n-butyl-7-(2-oxobutyl)xanthine] |  |  |  |  | 5 to 32 |  |  |  | less pronounced in comparison with Compound A |  |  |  | low water solubility | 22 | 6 |
